From ChEMBL document CHEMBL1914384, “Design, synthesis, and structure-activity relationship studies of highly potent novel benzoxazinyl-oxazolidinone antibacterial agents” (J Med Chem, 2011)
Converted amounts (≈) assume the structure as drawn.

How the values were obtained:
[1] = test system: Staphylococcus epidermidis; experiment: Antibacterial activity against linezolid-resistant Staphylococcus epidermidis after 16 hrs by agar dilution method; assay type: functional
[2] = test system: Enterococcus faecalis; experiment: Antibacterial activity against Enterococcus faecalis after 16 hrs by agar dilution method; assay type: functional
[3] = test system: Staphylococcus epidermidis; experiment: Antibacterial activity against methicillin-resistant Staphylococcus epidermidis after 16 hrs by agar dilution method; assay type: functional
[4] = test system: Staphylococcus aureus; experiment: Antibacterial activity against linezolid-resistant Staphylococcus aureus after 16 hrs by agar dilution method; assay type: functional
[5] = test system: Streptococcus pneumoniae; experiment: Antibacterial activity against penicillin-resistant Streptococcus pneumoniae after 16 hrs by agar dilution method; assay type: functional
[6] = test system: Staphylococcus aureus; experiment: Antibacterial activity against methicillin-resistant Staphylococcus aureus after 16 hrs by agar dilution method; assay type: functional
[7] = test system: Staphylococcus aureus; experiment: Antibacterial activity against Staphylococcus aureus ATCC 29213 after 16 hrs by agar dilution method; assay type: functional; details: ATCC 29213, 16 h
[8] = test system: Enterococcus faecalis; experiment: Antibacterial activity against linezolid-resistant Enterococcus faecalis after 16 hrs by agar dilution method; assay type: functional
[9] = test system: Enterococcus faecium; experiment: Antibacterial activity against linezolid-resistant Enterococcus faecium after 16 hrs by agar dilution method; assay type: functional
[10] = AUC (0 to infinity) in Sprague-Dawley rat at 50 mg/kg, po by LC-MS analysis; assay type: ADME, organism-based; parameters: time infinity, dose 50 mg/kg, route oral; details: plasma
[11] = test system: Staphylococcus epidermidis; experiment: Antibacterial activity against Linezolid-resistant Staphylococcus epidermidis after 16 hrs by agar dilution method relative to Linezolid; assay type: functional
[12] = test system: Enterococcus faecalis; experiment: Antibacterial activity against Linezolid-resistant Enterococcus faecalis after 16 hrs by agar dilution method relative to Linezolid; assay type: functional
[13] = test system: Enterococcus faecium; experiment: Antibacterial activity against Linezolid-resistant Enterococcus faecium after 16 hrs by agar dilution method relative to Linezolid; assay type: functional
[14] = AUC (0 to infinity) in Sprague-Dawley rat at 10 mg/kg, iv by LC-MS analysis; assay type: ADME, organism-based; parameters: time infinity, dose 10 mg/kg, route intravenous; details: plasma
[15] = test system: Staphylococcus aureus; experiment: Antibacterial activity against Staphylococcus aureus ATCC 19636 infected in mouse systemic infection model administered orally 1 hour after infection measured 48 hrs of post-treatment; assay type: functional; details: ATCC 19636, po
[16] = test system: Streptococcus pneumoniae; experiment: Antibacterial activity against penicillin-resistant Streptococcus pneumoniae after 16 hrs by agar dilution method relative to Linezolid; assay type: functional
[17] = test system: Staphylococcus aureus; experiment: Antibacterial activity against methicillin-resistant Staphylococcus aureus ATCC 33591 infected in NSA mouse neutropenic model administered orally 1 hour after infection measured 48 hrs post-treatment; assay type: functional; details: ATCC 33591, po
[18] = test system: Staphylococcus aureus; experiment: Antibacterial activity against Staphylococcus aureus ATCC 29213 after 16 hrs by agar dilution method relative to Linezolid; assay type: functional
[19] = Cmax in Sprague-Dawley rat at 50 mg/kg, po by LC-MS analysis; assay type: ADME, organism-based; parameters: dose 50 mg/kg, route oral; details: in vivo
[20] = test system: Staphylococcus aureus; experiment: Antibacterial activity against Linezolid-resistant Staphylococcus aureus after 16 hrs by agar dilution method relative to Linezolid; assay type: functional
[21] = Oral bioavailability in Sprague-Dawley rat at 50 mg/kg by LC-MS analysis; assay type: ADME, organism-based; details: in vivo
[22] = Half life in Sprague-Dawley rat at 10 mg/kg, iv by LC-MS analysis; assay type: ADME, organism-based; parameters: dose 10 mg/kg, route intravenous; details: in vivo
[23] = Half life in Sprague-Dawley rat at 50 mg/kg, po by LC-MS analysis; assay type: ADME, organism-based; parameters: dose 50 mg/kg, route oral; details: in vivo
[24] = test system: Staphylococcus epidermidis; experiment: Antibacterial activity against methicillin-resistant Staphylococcus epidermidis after 16 hrs by agar dilution method relative to Linezolid; assay type: functional
[25] = test system: Enterococcus faecalis; experiment: Antibacterial activity against Enterococcus faecalis after 16 hrs by agar dilution method relative to Linezolid; assay type: functional
[26] = Tmax in Sprague-Dawley rat at 50 mg/kg, po by LC-MS analysis; assay type: ADME, organism-based; parameters: dose 50 mg/kg, route oral; details: in vivo
[27] = Clearance in Sprague-Dawley rat at 10 mg/kg, iv by LC-MS analysis; assay type: ADME, organism-based; parameters: dose 10 mg/kg, route intravenous; details: in vivo

| Structure (SMILES) | MIC [1] | MIC [2] | MIC [3] | MIC [4] | MIC [5] | MIC [6] | MIC [7] | MIC [8] | MIC [9] | also measured |
| --- | --- | --- | --- | --- | --- | --- | --- | --- | --- | --- |
| CC(=O)NC[C@@H]1OC(=O)N2c3ccc(-c4ccc(C5(N)CC5)nc4)cc3OC[C@@H]12 | 4 µg/mL (≈ 10.1 µM) | 0.5 µg/mL (≈ 1.27 µM) | 0.25 µg/mL (≈ 0.634 µM) | 16 µg/mL (≈ 40.6 µM) | 0.5 µg/mL (≈ 1.27 µM) | 0.25 µg/mL (≈ 0.634 µM) | 0.25 µg/mL (≈ 0.634 µM) | 4 µg/mL (≈ 10.1 µM) | 4 µg/mL (≈ 10.1 µM) | – |
| CC(=O)NC[C@@H]1OC(=O)N2c3ccc(-c4ccc([N+](=O)[O-])nc4)cc3OC[C@@H]12 | 2 µg/mL (≈ 5.2 µM) | 0.5 µg/mL (≈ 1.3 µM) | 0.25 µg/mL (≈ 0.65 µM) | 2 µg/mL (≈ 5.2 µM) | 0.5 µg/mL (≈ 1.3 µM) | 0.25 µg/mL (≈ 0.65 µM) | 0.125 µg/mL (≈ 0.325 µM) | 1 µg/mL (≈ 2.6 µM) | 1 µg/mL (≈ 2.6 µM) | – |
| CC(=O)NC[C@@H]1OC(=O)N2c3ccc(-c4ccc(C#CCO)nc4)cc3OC[C@@H]12 | 1 µg/mL (≈ 2.54 µM) | 0.5 µg/mL (≈ 1.27 µM) | 0.25 µg/mL (≈ 0.635 µM) | 4 µg/mL (≈ 10.2 µM) | 0.5 µg/mL (≈ 1.27 µM) | 0.25 µg/mL (≈ 0.635 µM) | 0.5 µg/mL (≈ 1.27 µM) | 1 µg/mL (≈ 2.54 µM) | 1 µg/mL (≈ 2.54 µM) | – |
| CC(=O)NC[C@@H]1OC(=O)N2c3ccc(-c4ccc(N5CCOC5=O)nc4)cc3OC[C@@H]12 | 1 µg/mL (≈ 2.36 µM) | 0.5 µg/mL (≈ 1.18 µM) | 0.125 µg/mL (≈ 0.295 µM) | 2 µg/mL (≈ 4.71 µM) | 0.25 µg/mL (≈ 0.589 µM) | 0.125 µg/mL (≈ 0.295 µM) | 0.25 µg/mL (≈ 0.589 µM) | 1 µg/mL (≈ 2.36 µM) | 0.5 µg/mL (≈ 1.18 µM) | AUC(0-inf) [10]: 123 µg·h/mL; fold change (FC) [11]: 8; fold change (FC) [12]: 8; fold change (FC) [13]: 8; AUC(0-inf) [14]: 136 µg·h/mL; ED50 [15]: 11.3 mg/kg; fold change (FC) [16]: 4; ED50 [17]: 9.5 mg/kg; fold change (FC) [18]: 4; Cmax [19]: 9000 ng/mL; fold change (FC) [20]: 8; bioavailability [21]: 18%; half-life [22]: 3.7 h; half-life [23]: 4.7 h; fold change (FC) [24]: 4; fold change (FC) [25]: 4; Tmax [26]: 6 h; clearance [27]: 1.28 mL/min/kg |
| COc1ccc(-c2ccc3c(c2)OC[C@H]2[C@H](CNC(C)=O)OC(=O)N32)cn1 | 2 µg/mL (≈ 5.41 µM) | 0.5 µg/mL (≈ 1.35 µM) | 0.5 µg/mL (≈ 1.35 µM) | 4 µg/mL (≈ 10.8 µM) | 0.5 µg/mL (≈ 1.35 µM) | 0.5 µg/mL (≈ 1.35 µM) | 0.25 µg/mL (≈ 0.677 µM) | 2 µg/mL (≈ 5.41 µM) | 1 µg/mL (≈ 2.71 µM) | – |
| CC(=O)NC[C@@H]1OC(=O)N2c3ccc(-c4ccc(-c5nnnn5C)nc4)cc3OC[C@@H]12 | 2 µg/mL (≈ 4.75 µM) | 0.5 µg/mL (≈ 1.19 µM) | 0.25 µg/mL (≈ 0.593 µM) | 4 µg/mL (≈ 9.49 µM) | 0.25 µg/mL (≈ 0.593 µM) | 0.25 µg/mL (≈ 0.593 µM) | 0.5 µg/mL (≈ 1.19 µM) | 1 µg/mL (≈ 2.37 µM) | 1 µg/mL (≈ 2.37 µM) | – |
| CC(=O)NC[C@@H]1OC(=O)N2c3ccc(-c4ccc(C(C)=O)nc4)cc3OC[C@@H]12 | 1 µg/mL (≈ 2.62 µM) | 0.5 µg/mL (≈ 1.31 µM) | 0.25 µg/mL (≈ 0.656 µM) | 2 µg/mL (≈ 5.24 µM) | 0.5 µg/mL (≈ 1.31 µM) | 0.25 µg/mL (≈ 0.656 µM) | 0.5 µg/mL (≈ 1.31 µM) | 1 µg/mL (≈ 2.62 µM) | 1 µg/mL (≈ 2.62 µM) | fold change (FC) [11]: 8; fold change (FC) [12]: 8; fold change (FC) [13]: 8; ED50 [15]: > 20 mg/kg; fold change (FC) [20]: 8 |
| COC(=O)c1ccc(-c2ccc3c(c2)OC[C@H]2[C@H](CNC(C)=O)OC(=O)N32)cn1 | – | 1 µg/mL (≈ 2.52 µM) | 0.5 µg/mL (≈ 1.26 µM) | – | 1 µg/mL (≈ 2.52 µM) | 0.5 µg/mL (≈ 1.26 µM) | 0.5 µg/mL (≈ 1.26 µM) | – | – | – |
| CC(=O)NC[C@@H]1OC(=O)N2c3ccc(N4CCN(Cc5ccncc5)CC4)cc3OC[C@@H]12 | – | > 16 µg/mL | > 16 µg/mL | – | > 16 µg/mL | > 16 µg/mL | 16 µg/mL (≈ 36.6 µM) | – | – | – |
| CC(=O)NC[C@@H]1OC(=O)N2c3ccc(-c4ccc(C5(C#N)CC5)nc4)cc3OC[C@@H]12 | 1 µg/mL (≈ 2.47 µM) | 0.5 µg/mL (≈ 1.24 µM) | 0.5 µg/mL (≈ 1.24 µM) | 8 µg/mL (≈ 19.8 µM) | 0.5 µg/mL (≈ 1.24 µM) | 0.5 µg/mL (≈ 1.24 µM) | 0.5 µg/mL (≈ 1.24 µM) | 1 µg/mL (≈ 2.47 µM) | 1 µg/mL (≈ 2.47 µM) | – |
